Reference: the RepoRT retention time repository
Structures can show the parent of a compound that is named as a salt.

assay: RP, Waters ACQUITY Premier BEH C18, 100 × 2.1 mm, 1.7 µm, 40 °C, 0.3 to 0.4 mL/min, estimated dead time 0.73 min; A: water + 0.1% formic acid; B: acetonitrile + 0.1% formic acid; gradient (min/%B) 0/0.5 0.1/0.5 10/80 10.1/99.5 12/0.5 12.1/0.5 14.5/0.5; conditions: stereoisomer not certain

LC retention time	SMILES
1.89 min	O=C(O)C1=COC(OC2OC(CO)C(O)C(O)C2O)C2C(CO)=CCC12 (stereo not given) [GENIPOSIDIC ACID]
5.05 min	C=C1CC23CC1(O)CCC2C12C=CC(O)C(C)(C(=O)O1)C2C3C(=O)O (stereo not given) [GIBBERELLIN A3]
7.34 min	CCCCCC(O)CC(=O)CCc1ccc(O)c(OC)c1 (stereo not given) [GINGEROL]
5.66 min	CC1C(=O)OC2CC34C5CC(C(C)(C)C)C36C(OC(=O)C6O)OC4(C(=O)O5)C21O (stereo not given) [GINKGOLIDE A]
8.08 min	CC1(C(=O)O)CCC2(C)CCC3(C)C(=CC(=O)C4C5(C)CCC(O)C(C)(C)C5CCC43C)C2C1 (stereo not given) [GLYCYRRHETINIC ACID]
6.4 min	CC1(C(=O)O)CCC2(C)CCC3(C)C(=CC(=O)C4C5(C)CCC(OC6OC(C(=O)O)C(O)C(O)C6OC6OC(C(=O)O)C(O)C(O)C6O)C(C)(C)C5CCC43C)C2C1 (stereo not given) [GLYCYRRHIZIN]
1.29 min	Nc1nc2nc[nH]c2c(=O)[nH]1 [GUANINE]
6.26 min	COc1ccc(C2CC(=O)c3c(O)cc(O)cc3O2)cc1O (stereo not given) [HESPERETIN]
4.77 min	COc1ccc(C2CC(=O)c3c(O)cc(OC4OC(COC5OC(C)C(O)C(O)C5O)C(O)C(O)C4O)cc3O2)cc1O (stereo not given) [HESPERIDINE]
7.67 min	O=C(O)CCCCCCCCCCCCCCC(=O)O [HEXADECANEDIOIC ACID]
5.2 min	CCCCCC(=O)NCC(=O)O [HEXANOYLGLYCINE]
0.958 min	NC(CCSSCCC(N)C(=O)O)C(=O)O (stereo not given) [HOMOCYSTINE]
3.66 min	O=C(O)Cc1cc(O)ccc1O [HOMOGENTISATE]
4.66 min	COc1cc(CC(=O)O)ccc1O [HOMOVANILLATE]
4.46 min	Oc1ccc(O)cc1 [HYDROQUINONE]
4.88 min	CC(C)CC(O)C(=O)O (stereo not given) [HYDROXYISOCAPROIC ACID]
3.89 min	OCCc1ccc(O)c(O)c1 [HYDROXYTYROSOL]
6.98 min	CC(CCC(=O)O)C1CCC2C3C(O)C(O)C4CC(O)CCC4(C)C3CCC12C (stereo not given) [HYOCHOLIC ACID]
5.81 min	OCCc1c[nH]c2ccccc12 [INDOLE-3-ETHANOL]
6.22 min	O=C(O)CCc1c[nH]c2ccccc12 [INDOLE-3-PROPIONIC ACID]
5.72 min	O=C(O)Cc1c[nH]c2ccccc12 [INDOLEACETIC ACID]
5.61 min	O=C(O)C=Cc1c[nH]c2ccccc12 [INDOLEACRYLIC ACID]
4.58 min	O=S(=O)(O)Oc1c[nH]c2ccccc12 [INDOXYL SULFATE]
3.37 min	O=c1[nH]cnc2c1ncn2C1OC(CO)C(O)C1O (stereo not given) [INOSINE]

LC retention time	SMILES
3.67 min	CC(C)C(=O)O [ISOBUTYRATE]
4.39 min	CC(C)CC(=O)OC(CC(=O)[O-])C[N+](C)(C)C (stereo not given) [ISOVALERYLCARNITINE]
6.64 min	COc1cc2c(c(O)c1C(=O)C=Cc1ccc(O)cc1)C(O)CC(C)(C)O2 (stereo not given) [ISOXANTHOHUMOL B]
0.888 min	O=CC(O)C(O)C(O)C(O)CO (stereo not drawn) [ISTD_ D(+)-GLUCOSE-13C6]
6.13 min	O=c1c(O)c(-c2ccc(O)cc2)oc2cc(O)cc(O)c12 [KAEMPFEROL]
1.17 min	O=c1cc(CO)occ1O [KOJIC ACID]
3.62 min	Nc1ccccc1C(=O)CC(N)C(=O)O (stereo not given) [KYNURENINE]
1.7 min	N[C@@H](Cc1ccc(O)c(O)c1)C(=O)O [L-DOPA]
5.76 min	CCCCCCCC(=O)OC(CC(=O)[O-])C[N+](C)(C)C [L-OCTANOYLCARNITINE]
0.897 min	CCNC(=O)CC[C@H](N)C(=O)O [L-THEANINE]
3.64 min	C[N+](C)(C)C(Cc1c[nH]c2ccccc12)C(=O)[O-] (stereo not given) [LENTICIN]
6.87 min	CC1(C)OC2CC(=O)OCC23C1CC(=O)C1(C)C3CCC2(C)C(c3ccoc3)OC(=O)C3OC321 (stereo not given) [LIMONIN]
5.5 min	NC(=O)CCCCC1CCSS1 (stereo not given) [LIPOAMIDE]
8.27 min	CC(CCC(=O)O)C1CCC2C3CCC4CC(O)CCC4(C)C3CCC12C (stereo not given) [LITHOCHOLATE]
7.55 min	CC(CCC(=O)NCCS(=O)(=O)O)C1CCC2C3CCC4CC(O)CCC4(C)C3CCC12C (stereo not given) [LITHOCHOLYLTAURINE]
4.44 min	O=c1cc(-c2ccc(O)c(O)c2)oc2cc(OC3OC(CO)C(O)C(O)C3O)cc(O)c12 (stereo not given) [LUTEOLIN-7-GLUCOSIDE]
4.77 min	O=C(O)C=Cc1cccc(O)c1 [M-COUMARIC ACID]
1.11 min	O=C(O)CC(O)C(=O)O (stereo not given) [MALATE]
1.21 min	O=C(O)CC(=O)O [MALONATE]
1.07 min	OCC1OC(OC2C(CO)OC(OC3C(CO)OC(OC4C(CO)OC(O)C(O)C4O)C(O)C3O)C(O)C2O)C(O)C(O)C1O (stereo not given) [MALTOTETRAOSE]
5.57 min	COc1ccc2[nH]cc(CCNC(C)=O)c2c1 [MELATONIN]
7.95 min	COC(=O)C=Cc1ccccc1 [METHYL CINNAMATE]
7.43 min	CCC=CCC1C(=O)CCC1CC(=O)OC (stereo not given) [METHYL JASMONATE]

More lines, now with the values behind:

SMILES	LC retention time
O=c1c(-c2ccc(O)cc2)coc2cc(O)cc(O)c12 [GENISTEIN]	6.07 min
O=c1c(-c2ccc(O)cc2)coc2cc(OC3OC(CO)C(O)C(O)C3O)cc(O)c12 (stereo not given) [GENISTIN]	4.57 min
CC1C(=O)OC2C(O)C34C5CC(C(C)(C)C)C36C(OC(=O)C6O)OC4(C(=O)O5)C12O (stereo not given) [GINKGOLIDE B]	5.64 min
CC1C(=O)OC2C(O)C34C5OC(=O)C3(OC3OC(=O)C(O)C34C(C(C)(C)C)C5O)C12O (stereo not given) [GINKGOLIDE C]	4.74 min
O=C(O)CCCC(=O)O [GLUTARATE]	3.5 min
O=C(O)C(O)CO (stereo not given) [GLYCERATE]	0.911 min
CCCCCCCCCCCCCC(=O)OCC(O)CO (stereo not given) [GLYCEROL-MYRISTATE]	8.67 min
CC(CCC(=O)NCC(=O)O)C1CCC2C3C(O)CC4CC(O)CCC4(C)C3CC(O)C12C (stereo not given) [GLYCOCHOLATE]	6.68 min
Nc1nc2c(ncn2C2OC(COP(=O)(O)OP(=O)(O)OC3OC(CO)C(O)C(O)C3O)C(O)C2O)c(=O)[nH]1 (stereo not given) [GUANOSINE DIPHOSPHATE MANNOSE]	1.37 min
Nc1nc2c(ncn2C2OC(COP(=O)(O)O)C(O)C2O)c(=O)[nH]1 (stereo not given) [GUANOSINE MONOPHOSPHATE]	1.57 min
Nc1nc2c(ncn2C2OC(CO)C(O)C2O)c(=O)[nH]1 (stereo not given) [GUANOSINE]	3.37 min
COc1ccc2c3c([nH]c2c1)C(C)=NCC3 [HARMALINE]	4.51 min
Cc1nccc2c1[nH]c1ccccc12 [HARMAN]	4.24 min
COc1ccc(C2CC(=O)c3c(O)cc(OC4OC(CO)C(O)C(O)C4OC4OC(C)C(O)C(O)C4O)cc3O2)cc1O (stereo not given) [HESPERETIN 7-NEOHESPERIDOSIDE]	4.83 min
O=C(O)CNC(=O)c1ccccc1 [HIPPURATE]	4.57 min
NC1CCSC1=O (stereo not given) [HOMOCYSTEINE THIOLACTONE]	0.939 min
NC(CCS)C(=O)O (stereo not given) [HOMOCYSTEINE]	0.963 min
COc1ccc(CC(=O)O)cc1OC [HOMOVERATRIC ACID]	5.34 min
Nc1c(O)cccc1C(=O)CC(N)C(=O)O (stereo not given) [HYDROXYKYNURENINE]	2.07 min
O=C(O)C(O)Cc1ccc(O)cc1 (stereo not given) [HYDROXYPHENYLLACTATE]	4.05 min
O=c1[nH]cnc2nc[nH]c12 [HYPOXANTHINE]	1.76 min
CC(C)=CCOc1c2occc2cc2ccc(=O)oc12 [IMPERATORIN]	7.46 min

SMILES	LC retention time
O=CCc1c[nH]c2ccccc12 [INDOLEACETALDEHYDE]	6.28 min
CC(C)C(=O)OC(CC(=O)[O-])C[N+](C)(C)C [ISOBUTYRYL-L-CARNITINE]	3.82 min
O=C(O)CC(C(=O)O)C(O)C(=O)O (stereo not given) [ISOCITRATE]	1.16 min
Nc1nc2[nH]c(=O)cnc2c(=O)[nH]1 [ISOXANTHOPTERIN]	1.02 min
CCCCCCCCCCCC(=O)OC(CC(=O)O)C[N+](C)(C)C.[Cl-] (stereo not given) [ISTD_LAUROYL-CARNITINE-D3]	7.14 min
CSCCC(N)C(=O)O (stereo not given) [ISTD_METHIONINE-METHYL-D3]	1.46 min
C=C(CC(=O)O)C(=O)O [ITACONATE]	3.67 min
CC(C)CC(=O)C(=O)O [KETOLEUCINE]	4.02 min
O=C(O)c1cc(=O)c2ccccc2[nH]1 [KYNURENATE]	4.18 min
CC(C)CC1NC(=O)C2CCCN2C1=O [L,L-CYCLO(LEUCYLPROLYL)]	4.92 min
O=C(O)C[C@H](NC(=O)Cc1c[nH]c2ccccc12)C(=O)O [L-N-(1H-INDOL-3-YLACETYL)ASPARTIC ACID]	4.39 min
NC(=O)[C@@H](N)Cc1c[nH]c2ccccc12 [L-TRYPTOPHANAMIDE]	3.9 min
CCCCCC=CCC=CCCCCCCCC(=O)O [LINOLEATE]	7.75 min
NC(Cc1cc(I)c(Oc2ccc(O)c(I)c2)c(I)c1)C(=O)O (stereo not given) [LIOTHYRONINE]	6.23 min
CC(CCC(=O)NCC(=O)O)C1CCC2C3CCC4CC(O)CCC4(C)C3CCC12C (stereo not given) [LITHOCHOLIC ACID GLYCINE CONJUGATE]	7.62 min
Cc1cc2nc3[nH]c(=O)[nH]c(=O)c3nc2cc1C [LUMICHROME]	5.49 min
O=c1cc(-c2ccc(O)c(O)c2)oc2cc(O)cc(O)c12 [LUTEOLIN]	5.54 min
O=c1c2cc(O)c(O)cc2oc2cc(O)c(C3OC(CO)C(O)C(O)C3O)c(O)c12 (stereo not given) [MANGIFERIN]	3.75 min
CC(C)=CCCC(C)=CCC1=C(C)C(=O)c2ccccc2C1=O [MENAQUINONE]	10.8 min
CC(CC(=O)O)CC(=O)O [METHYGLUTARATE]	4.05 min
COC(=O)CCCN [METHYL 4-AMINOBUTYRATE]	1.4 min
